We go through 1 substance from patent US12606795B2 (Thankcome Biological Science and Technology (SuZhou) Co., …, priority 2023, dated 2026).

Assay [1] has as its system APP/PS1 double transgenic mice. In words: Alzheimer's disease in APP/PS1 double transgenic mice. In kind it is in vivo. An excerpt:
20 12-month-old APP/PS1 double transgenic mice (Hangzhou Ziyuan Experimental Animal Technology Co., Ltd., batch MJ0324-058) were randomly divided into two groups: an APP group and an APP+AKK group, with 10 mice in each group. Another 10 littermate wild-type C57 BL/6J mice were taken as blank, which served as a WT group. All mice were given intragastric administration and injection for 30 d at 12-month age (see Table 7 for intragastric administration conditions). After all the experiments ended, blood was collected from the orbital veins of the mice. The mice were sacrificed by cervical dislocation. Part of brain tissue, liver tissue and colon tissue of the mice were taken and placed in 4% paraformaldehyde, and the remaining tissue was placed in an ultra-low temperature freezer at −80° C. for storage.
DDW: Double distilled water.
After administration, a Morris water maze experiment of a 4-day duration was conducted firstly. The water maze consists of a circular pool (with a diameter of 120 cm) and is evenly divided into four quadrants. During the experiment, the mice were moved into a laboratory two hours in advance to acquaint themselves with the environment. The water temperature was adjusted to around 21° C. to 22° C., and then milk was poured into the pool to make the water milky white. D1 to D3 were a training period, during which the mice were gently placed into the water from first, second, third, and fourth quadrants with their faces towards the direction of the pool wall reminders. Swimming trajectories at 1 min were recorded. […] Each mouse was trained once per day per quadrant for 3 consecutive days. D4 was an experimental period, during which a quadrant was randomly selected for each mouse and then the mice were placed in the pool. The time required to find the platform within 60 s, i.e., escape latency, was recorded, and the swimming trajectory of each mouse was recorded with a video acquisition system. If the mouse fail to find the platform within 60 s after entering the water, the escape latency is recorded as 60 s.
A hippocampus was homogenized in 1 mL RIPA (Thermofisher, Waltham, MA, USA) and 10 μL PMSF (Thermofisher), and the homogenized hippocampus was centrifuged at 4° C. at 12000×g for 5 min. Proteins were quantified using a BCA protein assay kit (Thermofisher). A protein sample was mixed with a sample buffer (Thermofisher) in a ratio of 4:1, and the mixture was heated at 95° C. for 5 min. Then the sample was dispensed into gel pores of SDS-PAGE gel and the gel was run at 100 V. Strips on SDS-PAGE gel were transferred onto a PVFD membrane. The PVDF membrane was sealed with 5% skim milk for 1 h, and then the stripes were incubated overnight with a primary antibody (Thermofisher) at 4° C. An antibody (Thermofisher) was added after the membrane was washed and the incubation was performed for 1 h. Images on iBright™ (Thermofisher) were obtained after chemiluminescence was performed using a western ECL substrate (Thermofisher), where the images were used for subsequent analysis.
The hippocampus was taken and homogenized with PBS, and then liquid supernatant was drawn for the experiment. The levels of IL-4 (interleukin-4, Nanjing Jiancheng Biological Engineering Research Institute, product number: H005-1-2), IL-10 (interleukin-10, Nanjing Jiancheng Biological Engineering Research Institute, product number: H009-1-2), CCL2 (chemokine ligand 2, Nanjing Jiancheng Biological Engineering Research Institute, product number: H318-1) and CXCL1 (CXC chemokine ligand 1, Nanjing Jiancheng Biological Engineering Research Institute, product number: H306-1) in the hippocampus were tested by the instruction of the ELISA kit.

Assay [2] relates to DSS-induced ulcerative colitis mice. The assay can be described thus: DSS-induced ulcerative colitis in mice. Format: in vivo, C57BL/6J mice. Conditions: 5.0% DSS mice, 1×10^10 CFU/mL intragastric daily 9 d. As to the method: Animals and their management: male C57BL/6J mice (6 to 10-week-old, weighing 18 to 24 g) purchased from the Beijing Huafukang Biotechnology Co., Ltd, where procedures involving mice were carried out in strict accordance with international animal care standards, and approved by the Animal Protection Institute and Management Committee of Jilin Agricultural University. Adaptive culture was performed for 1 week, and mice were cultured at room temperature (25° C.±1° C.) in a cycle of 12 h of light and 12 h of darkness.
Animal experimental design: 5.0% (wt/vol) DSS (molecular weight: 36,000 to 50,000) was added to drinking water of the mice for 3 consecutive days to induce colitis. Beginning on the first day of taking DSS, the A. muciniphila (viable or inactivated, with a concentration of 1×10^10 CFU/mL) was intragastrically administered per day for 9 consecutive days. C57BL/6J mice were randomly divided into four groups: a control group, a DSS model group (DSS), an AKK PRO group, and an inactivated AKK PRO group (mAKK PRO). Physiological indicators of the mice in each group were observed.
Physiological indicators: The physiological indicators are used for assessing health statuses of the mice. The individual scores of the mice were combined to generate disease activity indices (DAI), including changes of body weight, food intake, and fecal consistency. After the mice were euthanized, the colon length and the liver weight of each mouse in each group were measured, and an immune organ index was calculated according to the following formula: liver index=liver weight (mg)/body weight (g) [Wang, X., et al., Troxerutin Improves Dextran Sulfate Sodium-Induced Ulcerative Colitis in Mice. J Agric Food Chem, 2021. 69 (9): p. 2729-2744.].

[3] abbreviates: 1*10^9 CFU/mouse/d intragastric 30 d, vs APP group.
The mark [4] stands for this setting: APP+AKK group compared with APP group.

Marks after values point to notes of the source that are not given here.

Take Akkermansia muciniphila [AKK PROBIO]: in assay [1] (setting [3]), the “escape latency (Morris water maze)” value is on record as “shortened” and the “path to finding the platform (Morris water maze)” value is “significantly shortened”. In assay [1] (setting [4]), the “levels of CXCL1 and CCL2” value was “declining trend”; the “levels of IL-4 and IL-10” value was “rising trend”. The “Hippocampus IL-4” value in assay [1] (APP/PS1 mice, 1*10^9 CFU/mouse/d 30 d, APP group 54.73, WT 410.91) is recorded as 210.90 ± 19.77^c. In addition, the “Hippocampus CCL2” value in assay [1] (APP/PS1 mice, 1*10^9 CFU/mouse/d 30 d, APP group 159.11, WT 103.32) is given as 123.20 ± 0.50^b. Besides, the “Hippocampus Aβ” value in assay [1] (APP/PS1 mice, 1*10^9 CFU/mouse/d 30 d, APP group 348.45, WT 59.23) was 185.15 ± 9.07^b. The “Hippocampus IL-10” value in assay [1] (APP/PS1 mice, 1*10^9 CFU/mouse/d 30 d, APP group 1035.86, WT 3373.80) is 2516.88 ± 91.80^c. For the same substance, the “Hippocampus CXCL1” value in assay [1] (APP/PS1 mice, 1*10^9 CFU/mouse/d 30 d, APP group 1217.20, WT 355.37) is listed as 653.77 ± 15.44^b. The “immune organ index (liver index)” value in assay [2] (vs DSS group) was “significantly decreased”. In addition, the colon length result in assay [2] (vs DSS group, P<0.05) was “significantly increased”. Moreover, in assay [2] (vs model group), the DAI score entry is on record as “lower”, the body weight reduced result is “less” and the food intake reduced entry was “less”.
